In brackets after ≈: the same amount, converted by molar mass.

Holding throughout (assay type): functional
The subject of one assay is P388. In words: Compound was tested for growth inhibitory activity after 72 hr of continuous exposure against mouse leukemia P388. As to conditions: P388, 72 h.
The test system of assay [1] is PC-6. Kind of assay: Compound was tested for growth inhibitory activity after 72 hr of continuous exposure against human lung cancer cell line PC-6. Conditions: PC-6, 72 h.
In assay [2] the test system is PC-6. Kind of assay: Compound was tested for growth inhibitory activity after 72 hr of continuous exposure against vincristine resistant cancer cell line PC-6/VCR. Conditions: Homo sapiens, PC-6, 72 h.

As for `CC(=O)OCC1=C2[C@@H](O)C(=O)[C@@]3(C)[C@H]([C@H](OC(=O)c4ccccc4)[C@](O)(C[C@@H]1OC(=O)[C@H](O)[C@@H](NC(=O)OC(C)(C)C)c1ccccc1)C2(C)C)[C@]1(OC(C)=O)CO[C@@H]1C[C@@H]3O`, the GI50 (as a rule, the concentration giving 50% growth inhibition) in the assay on P388 is 0.181 µg/mL (≈ 0.209 µM); in the assay with PC-6 [1], 0.163 µg/mL (≈ 0.188 µM); with PC-6 [2], over 1 µg/mL.

As for `CC(=O)O[C@H]1C(=O)[C@@]2(C)[C@H]([C@H](OC(=O)c3ccccc3)[C@]3(O)C[C@H](OC(=O)[C@H](O)[C@@H](NC(=O)OC(C)(C)C)c4ccccc4)C(CN=[N+]=[N-])=C1C3(C)C)[C@]1(OC(C)=O)CO[C@@H]1C[C@@H]2O`, the GI50 came out at 0.0401 µg/mL (≈ 0.045 µM) in the assay on P388, 0.0524 µg/mL (≈ 0.0588 µM) in the assay with PC-6 [1] and 0.39 µg/mL (≈ 0.438 µM) in the assay on PC-6 [2].

As to `CC(=O)O[C@@]12CO[C@@H]1C[C@H](O)[C@@]1(C)C(=O)[C@H](O)C3=C(CC#N)[C@@H](OC(=O)[C@H](O)[C@@H](NC(=O)OC(C)(C)C)c4ccccc4)C[C@@](O)([C@@H](OC(=O)c4ccccc4)[C@H]21)C3(C)C`, the GI50 is 0.00837 µg/mL (≈ 0.01 µM) in the assay on P388, 0.00481 µg/mL (≈ 0.00578 µM) with PC-6 [1] and 0.754 µg/mL (≈ 0.905 µM) with PC-6 [2].

For the compound `CC(=O)O[C@@]12CO[C@@H]1C[C@H](O)[C@@]1(C)C(=O)[C@H](O)C3=C(CN4CCOCC4)[C@@H](OC(=O)[C@H](O)[C@@H](NC(=O)OC(C)(C)C)c4ccccc4)C[C@@](O)([C@@H](OC(=O)c4ccccc4)[C@H]21)C3(C)C`, the GI50 in the assay with P388, in the assay on PC-6 [1] and with PC-6 [2] was over 1 µg/mL each time.

Consider `CCC1=C2[C@@H](OC(C)=O)C(=O)[C@@]3(C)[C@H]([C@H](OC(=O)c4ccccc4)[C@](O)(C[C@@H]1OC(=O)[C@H](O)[C@@H](NC(=O)OC(C)(C)C)c1ccccc1)C2(C)C)[C@]1(OC(C)=O)CO[C@@H]1C[C@@H]3O`, for which the GI50 amounted to 0.00745 µg/mL (≈ 0.00862 µM) in the assay with P388, 0.0103 µg/mL (≈ 0.0119 µM) with PC-6 [1] and 0.167 µg/mL (≈ 0.193 µM) in the assay with PC-6 [2].

For the compound `CC(=O)O[C@H]1C(=O)[C@@]2(C)[C@H]([C@H](OC(=O)c3ccccc3)[C@]3(O)C[C@H](OC(=O)[C@H](O)[C@@H](NC(=O)OC(C)(C)C)c4ccccc4)C(C=O)=C1C3(C)C)[C@]1(OC(C)=O)CO[C@@H]1C[C@@H]2O`, the figures for the GI50 with P388, in the assay on PC-6 [1] and in the assay with PC-6 [2] were over 1 µg/mL, 0.699 µg/mL (≈ 0.809 µM) and over 1 µg/mL, respectively.

In the case of `CC(=O)NCC1=C2[C@@H](OC(C)=O)C(=O)[C@@]3(C)[C@H]([C@H](OC(=O)c4ccccc4)[C@](O)(C[C@@H]1OC(=O)[C@H](O)[C@@H](NC(=O)OC(C)(C)C)c1ccccc1)C2(C)C)[C@]1(OC(C)=O)CO[C@@H]1C[C@@H]3O`, the concentration for 50% growth inhibition (GI50) was 0.393 µg/mL (≈ 0.433 µM) with P388, 0.131 µg/mL (≈ 0.144 µM) in the assay with PC-6 [1] and over 1 µg/mL in the assay on PC-6 [2].

In the case of `CC(=O)O[C@@]12CO[C@@H]1C[C@H](O)[C@@]1(C)C(=O)[C@H](O)C3=C(C)[C@@H](OC(=O)[C@H](O)[C@@H](NC(=O)OC(C)(C)C)c4ccccc4)C[C@@](O)([C@@H](OC(=O)c4ccccc4)[C@H]21)C3(C)C.O.O.O` [DOCETAXEL], the GI50 came to 0.00162 µg/mL with P388, 0.00116 µg/mL in the assay on PC-6 [1] and 0.173 µg/mL in the assay on PC-6 [2].

(Values after ChEMBL document CHEMBL1129804, “First synthesis and cytotoxic activity of novel docetaxel analogs modified at the C18-position” (1997).)
